Test results as given in ChEMBL document CHEMBL6109092, “Anti-HBV activity of (R)-gentiandiol, a metabolite of Swertiamarin, in transgenic mice: Insights from non-targeted serum metabolomics” (Bioorg Med Chem, 2025).
Activity calls are given as the source filed them. The rule behind the calls is not given here.

Key:
Type in all cases: functional, organism-based
Hepatitis B virus [1] = assay: In vivo antiviral activity against HBV infected in male C57BL/6NCrl mouse assessed as reduction in HBeAg level at 6 mg/kg administered via tail vein measured after 8 weeks by ELISA
Hepatitis B virus [2] = assay: In vivo antiviral activity against HBV infected in male C57BL/6NCrl mouse assessed as reduction in HBsAg level at 6 mg/kg administered via tail vein measured after 8 weeks by ELISA
Hepatitis B virus [3] = assay: In vivo antiviral activity against HBV infected in male C57BL/6NCrl mouse assessed as reduction in HBV-DNA level at 6 mg/kg administered via tail vein measured after 8 weeks by ELISA
Hepatitis B virus [4] = assay: In vivo antiviral activity against HBV infected in male C57BL/6NCrl mouse assessed as reduction in HBsAg level at 0.065 mg/kg, IG measured after 8 weeks by ELISA
Hepatitis B virus [5] = assay: In vivo antiviral activity against HBV infected in male C57BL/6NCrl mouse assessed as reduction in HBV-DNA level at 0.065 mg/kg, IG measured after 8 weeks by ELISA
Hepatitis B virus [6] = assay: In vivo antiviral activity against HBV infected in male C57BL/6NCrl mouse assessed as reduction in HBeAg level at 0.065 mg/kg, IG measured after 8 weeks by ELISA
Mus musculus [7] = assay: Reversal of tyrosine in HBV infected male C57BL/6NCrl mouse serum at 50 to 150 mg/kg, administered via tail vein by UPLC-Q/TOF-MS analysis.; details: dose 50-150 mg/kg
Hepatitis B virus [8] = assay: In vivo antiviral activity against HBV infected in male C57BL/6NCrl mouse assessed as reduction in HBeAg level at 1.5 mg/kg administered via tail vein measured after 8 weeks by ELISA
Hepatitis B virus [9] = assay: In vivo antiviral activity against HBV infected in male C57BL/6NCrl mouse assessed as reduction in HBsAg level at 3 mg/kg administered via tail vein measured after 8 weeks by ELISA
Mus musculus [10] = assay: Reduction in taurocholic acid in HBV infected male C57BL/6NCrl mouse serum at 50 to 150 mg/kg, administered via tail vein by UPLC-Q/TOF-MS analysis.; details: dose 50-150 mg/kg
Hepatitis B virus [11] = assay: In vivo antiviral activity against HBV infected in male C57BL/6NCrl mouse assessed as reduction in HBV-DNA level at 1.5 mg/kg administered via tail vein measured after 8 weeks by ELISA
Hepatitis B virus [12] = assay: In vivo antiviral activity against HBV infected in male C57BL/6NCrl mouse assessed as reduction in HBeAg level at 3 mg/kg administered via tail vein measured after 8 weeks by ELISA
Mus musculus [13] = assay: Reversal of phenylalanine level in HBV infected male C57BL/6NCrl mouse serum at 50 to 150 mg/kg, administered via tail vein by UPLC-Q/TOF-MS analysis.; details: dose 50-150 mg/kg
Mus musculus [14] = assay: Reversal of arachidonic acid level in HBV infected male C57BL/6NCrl mouse serum at 50 to 150 mg/kg, administered via tail vein by UPLC-Q/TOF-MS analysis.; details: dose 50-150 mg/kg
Hepatitis B virus [15] = assay: In vivo antiviral activity against HBV infected in male C57BL/6NCrl mouse assessed as reduction in HBV-DNA level at 3 mg/kg administered via tail vein measured after 8 weeks by ELISA
Hepatitis B virus [16] = assay: In vivo antiviral activity against HBV infected in male C57BL/6NCrl mouse assessed as reduction in HBsAg level at 1.5 mg/kg administered via tail vein measured after 8 weeks by ELISA
Mus musculus [17] = assay: Reversal of citric acid level in HBV infected male C57BL/6NCrl mouse serum at 50 to 150 mg/kg, administered via tail vein by UPLC-Q/TOF-MS analysis.; details: dose 50-150 mg/kg
Hepatitis B virus [18] = assay: In vivo antiviral activity against HBV infected in male C57BL/6NCrl mouse assessed as reduction in HBV-DNA level administered via tail vein measured after 8 weeks by ELISA; details: dose 1.5-6 mg/kg
Mus musculus [19] = assay: Reversal of citric acid level in HBV infected male C57BL/6NCrl mouse serum at 0.026 mg/kg, IG by UPLC-Q/TOF-MS analysis.
Mus musculus [20] = assay: Reversal of phenylalanine level in HBV infected male C57BL/6NCrl mouse serum at 0.026 mg/kg, IG by UPLC-Q/TOF-MS analysis.
Hepatitis B virus [21] = assay: In vivo antiviral activity against HBV infected in male C57BL/6NCrl mouse assessed as reduction in HBsAg level at 0.026 g/Kg, IG measured after 8 weeks by ELISA
Mus musculus [22] = assay: Reversal of arachidonic acid level in HBV infected male C57BL/6NCrl mouse serum at 0.026 mg/kg, IG by UPLC-Q/TOF-MS analysis.
Hepatitis B virus [23] = assay: In vivo antiviral activity against HBV infected in male C57BL/6NCrl mouse assessed as reduction in HBeAg level at 0.026 g/Kg, IG measured after 8 weeks by ELISA
Hepatitis B virus [24] = assay: In vivo antiviral activity against HBV infected in male C57BL/6NCrl mouse assessed as reduction in HBV-DNA level at 0.026 g/Kg, IG measured after 8 weeks by ELISA
Mus musculus [25] = assay: Reversal of tyrosine in HBV infected male C57BL/6NCrl mouse serum at 0.026 mg/kg, IG by UPLC-Q/TOF-MS analysis.

With O=C1OCCc2c1cncc2[C@H](O)CO the Activity (Hepatitis B virus [1]) was “inactive”, the Activity (Hepatitis B virus [2]) was “inactive” and the Activity (Hepatitis B virus [3]) was “inactive”.

For C=C1[C@H](CO)[C@@H](O)C[C@@H]1n1cnc2c(=O)[nH]c(N)nc21, the Activity (Hepatitis B virus [4]) was “Active”, the Activity (Hepatitis B virus [5]) was “Active” and the Activity (Hepatitis B virus [6]) was “Active”.

O=C1OCCc2c1cncc2[C@@H](O)CO was tested, and the Activity (Mus musculus [7]) was “Active”, the Activity (Hepatitis B virus [8]) was “Active” and the Activity (Hepatitis B virus [1]) was “Active”. For the same compound, the Activity (Hepatitis B virus [2]) was “Active”, the Activity (Hepatitis B virus [3]) was “Active” and the Activity (Hepatitis B virus [9]) was “Active”. The Activity (Mus musculus [10]) was “Active”, the Activity (Hepatitis B virus [11]) was “Active” and the Activity (Hepatitis B virus [12]) was “Active”. For the same compound, the Activity (Mus musculus [13]) was “Active”, the Activity (Mus musculus [14]) was “Active” and the Activity (Hepatitis B virus [15]) was “Active”. For the same compound, the Activity (Hepatitis B virus [16]) was “Active”, the Activity (Mus musculus [17]) was “Active” and the Activity (Hepatitis B virus [18]) was “Dose-dependent-effect”.

For C=C[C@H]1[C@H](O[C@@H]2O[C@H](CO)[C@@H](O)[C@H](O)[C@H]2O)OC=C2C(=O)OCC[C@]21O, the Activity (Mus musculus [19]) was “Active”, the Activity (Mus musculus [20]) was “Active” and the Activity (Hepatitis B virus [21]) was “Active”. For the same compound, the Activity (Mus musculus [22]) was “Active”, the Activity (Hepatitis B virus [23]) was “Active” and the Activity (Hepatitis B virus [24]) was “Active”. For the same compound, the Activity (Mus musculus [25]) was “Active”.
